The term Ki denotes a dissociation constant, usually derived from enzyme kinetics or from competition with a known ligand. High values mean a looser hold on the target, low ones a stronger hold on the target. The term inhibition denotes the change of the read-out against control, counted positive when it falls. Low values mean a weak effect, high ones a strong effect.

The target of one experiment is T1, Cysteinyl leukotriene receptor 1 (Cavia porcellus, UniProt Q2NNR5).
T1 sequence (Q2NNR5 whole entry): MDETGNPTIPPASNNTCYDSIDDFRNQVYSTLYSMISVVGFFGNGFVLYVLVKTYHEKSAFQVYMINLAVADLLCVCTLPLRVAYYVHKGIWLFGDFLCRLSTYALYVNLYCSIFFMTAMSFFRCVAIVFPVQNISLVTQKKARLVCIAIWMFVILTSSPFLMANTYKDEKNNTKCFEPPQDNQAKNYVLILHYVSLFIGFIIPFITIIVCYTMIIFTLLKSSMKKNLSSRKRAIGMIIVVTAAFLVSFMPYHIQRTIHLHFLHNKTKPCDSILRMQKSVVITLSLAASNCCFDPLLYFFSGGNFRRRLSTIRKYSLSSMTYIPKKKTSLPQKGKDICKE
Briefly: Binding affinity against LTD4 receptor in guinea pig lung membranes. In kind it is cell membranes.
Details: not given
The compound `CCOC(=O)C1CC(=O)c2ccc(COc3cccc(OCc4ccc5ccccc5n4)c3)cc2O1` (stereo not given) gave a Ki of 30 nM.

For the compound `O=C1CC(C(=O)O)Oc2cc(COc3ccc(OCc4ccc5ccccc5n4)cc3)ccc21` (stereo not given), the Ki amounted to 6.3 nM. The same measure, in the same setting: to `O=C1CC(c2nnn[nH]2)Oc2cc(COc3cccc(OCc4ccc5ccccc5n4)c3)ccc21` (stereo not given) belongs 0.12 nM. `O=C1CC(C(=O)O)Oc2cc(OCc3cccc(OCc4ccc5ccccc5n4)c3)ccc21` (stereo not given) had a Ki of 2.1 nM. The same measure, in the same setting: to `O=C1CC(c2nnn[nH]2)Oc2c(COc3ccc(OCc4ccc5ccccc5n4)cc3)cccc21` (stereo not given) belongs 15 nM; to `O=C1CC(c2nnn[nH]2)Oc2cc(OCc3cccc(OCc4ccc5ccccc5n4)c3)ccc21` (stereo not given), 0.1 nM; to `O=C1CC(c2nnn[nH]2)Oc2cc(CCc3cccc(OCc4ccc5ccccc5n4)c3)ccc21` (stereo not given), 0.3 nM.

In turn, `CC1(CCC(=O)O)CC(=O)c2ccc(OCc3cccc(OCc4ccc5ccccc5n4)c3)cc2O1` (stereo not given) had a Ki of 1.2 nM. On the same count and under the same terms, to `O=C1CC(C(=O)O)Oc2ccc(Cl)c(OCc3ccc(OCc4ccc5ccccc5n4)cc3)c21` (stereo not given) belongs 18 nM; to `O=C(Nc1cccc2c1OC(c1nnn[nH]1)CC2=O)c1ccc(OCc2ccc3ccccc3n2)cc1` (stereo not given), 1.1 nM.

Compound `O=C1CC(C(=O)O)Oc2ccc(OCc3cccc(OCc4ccc5ccccc5n4)c3)cc21` (stereo not given) had a Ki of 1.3 nM.

For the compound `O=C1CC(C(=O)O)Oc2c(COc3ccc(OCc4ccc5ccccc5n4)cc3)cccc21` (stereo not given), the Ki is 13 nM.

In the case of `O=C(O)c1cc(=O)c2ccc(OCc3ccc4ccccc4n3)cc2o1`, the affinity, expressed as Ki, was 7000 nM. On the same count and under the same terms, to `O=C1CC(c2nnn[nH]2)Oc2cc(/C=C/c3cccc(OCc4ccc5ccccc5n4)c3)ccc21` (stereo not given) belongs 2.5 nM.

A further experiment has as its target T2, Cysteinyl leukotriene receptor 1 (Cavia porcellus) (UniProt Q2NNR5).
T2 sequence (whole entry): T1 sequence (Q2NNR5 whole entry)
Briefly: Radioligand binding affinity against LTD4 receptor in guinea pig lung membranes at the concentration of 30 nM. The format is cell membranes. Particulars: Membrane.
`CCCc1c(OCc2cccc(OCc3ccc4ccccc4n3)c2)ccc2c1OC(C(=O)O)CC2=O` (stereo not given) returned an inhibition of 22%.

The record behind these values is ChEMBL document CHEMBL1125699, “Development of a novel series of (2-quinolinylmethoxy)phenyl-containing compounds as high-affinity leukotriene D4 receptor antagonists. 4. Addition of chromone moiety enhances leukotriene D4 receptor binding affinity” (J Med Chem, 1991).
